Patent US20260256792A1, “TREATMENT OF CHRONIC SPONTANEOUS URTICARIA BY ADMINISTERING (R)-2-[3-[4-AMINO-3-(2-FLUORO-4-PHENOXY-PHENYL)PYRAZOLO[3,4-D]PYRIMIDIN-1-YL]PIPERIDINE-1-CARBONYL]-4-METHYL-4-[4-(OXETAN-3-YL)PIPERAZIN-1-YL]PENT-2-ENENITRILE” (priority 2023, published 2026)

Test system: moderate-to-severe chronic spontaneous urticaria (CSU)
Test: Phase 2 CSU study: urticaria activity score over 7 days (UAS7)
Type: in vivo, human
Set-up: key to UAS7 Median / UAS7 Change from baseline Median / UAS7 change from baseline, Q1 / UAS7 change from baseline, Q3 / UAS7 change from baseline, Max / UAS7 Change from baseline LS Mean (SE): UAS7 points; daily UAS score ranges 0–6 points/day, over 7 days
Excerpt: The study comprises a 12 week, randomized, double-blind, placebo-controlled, multi-center, dose-ranging efficacy and safety phase, followed by a 40 week open label extension (OLE) phase (see FIG. 1). The study consists of three phases and an optional OLE phase. […] Clinically, CSU is characterized by the spontaneous and recurrent appearance of pruritic hives. The proposed primary endpoints were the UAS7 at Week 12 in EU and EU reference countries and the ISS7 in the US. Regardless of where a participant was from, all assessments were the same. The UAS7 score is a composite score containing both the HSS7 and the ISS7. This allowed a global assessment of the two key components of urticaria: hives and itch. […] The UAS is a validated PRO measure. […] The daily UAS scores range from 0 to 6 point/day. […] Patients were to complete the UAS using the e-diary. […] The following secondary endpoints were to be analyzed using the same approach as for the primary endpoint: • Change from baseline in UAS7 at Week 4 • Change from baseline in UAS7 at Week 12 (for US and US reference countries) • Change from baseline in ISS7 at Week 12 (except US and US reference countries) • Change from baseline in HSS7 at Week 12 The following responder secondary endpoints were to be analyzed using the Cochran-Mantel-Haenszel test adjusted by region: • Proportion of participants with UAS7<6 at Week 12 • Proportion of participants with UAS7=0 at Week 12 Participants who received selected prohibited medications and/or rescue medications were to be considered as non-responders for time points after the medication usage. For other participants, all available data including those collected during the off-treatment period were to be used to determine the responder/non-responder status. Missing data were to be considered as non-responders.

[1] = Omalizumab-Naïve Population, 400 mg BID, Week 1
[2] = Omalizumab-Naïve Population, 400 mg BID, Week 2
[3] = Omalizumab-Naïve Population, 400 mg BID, Week 3
[4] = Omalizumab-Naïve Population, 400 mg BID, Week 4
[5] = Omalizumab-Naïve Population, 400 mg BID, Week 12
[6] = Omalizumab-Naïve Population, 400 mg QPM, Week 1
[7] = Omalizumab-Naïve Population, 400 mg QPM, Week 2
[8] = Omalizumab-Naïve Population, 400 mg QPM, Week 3

For CC(C)(C=C(C#N)C(=O)N1CCC[C@@H](n2nc(-c3ccc(Oc4ccccc4)cc3F)c3c(N)ncnc32)C1)N1CCN(C2COC2)CC1 [rilzabrutinib, (R)-2-[3-[4-amino-3-(2-fluoro-4-phenoxy-phenyl)pyrazolo[3,4-d]pyrimidin-1-yl]piperidine-1-carbonyl]-4-methyl-4-[4-(oxetan-3-yl)piperazin-1-yl]pent-2-enenitrile], the “UAS7 Post-baseline Mean (SD)” value (Omalizumab-Naïve Population with Outlier Removed, 400 mg QPM, Week 2) was 23.44 (8.97), the “UAS7 Post-baseline Mean (SD)” value (Omalizumab-Naïve Population with Outlier Removed, 400 mg QPM, Week 3) was 22.01 (9.00) and the “UAS7 Post-baseline Mean (SD)” value (Omalizumab-Naïve Population with Outlier Removed, 400 mg QPM, Week 4) was 21.92 (8.82). The “UAS7 Post-baseline Mean (SD)” value (Omalizumab-Naïve Population with Outlier Removed, 400 mg QPM, Week 5) was 20.63 (9.18), the “UAS7 Post-baseline Mean (SD)” value (Omalizumab-Naïve Population with Outlier Removed, 400 mg QPM, Week 6) was 20.21 (10.42) and the “UAS7 Post-baseline Mean (SD)” value (Omalizumab-Naïve Population with Outlier Removed, 400 mg QPM, Week 7) was 21.11 (10.03). The “UAS7 Post-baseline Mean (SD)” value (Omalizumab-Naïve Population with Outlier Removed, 400 mg QPM, Week 9) was 20.25 (10.25), the “UAS7 Post-baseline Mean (SD)” value (Omalizumab-Naïve Population with Outlier Removed, 400 mg QPM, Week 10) was 20.27 (10.69) and the “UAS7 Post-baseline Mean (SD)” value (Omalizumab-Naïve Population with Outlier Removed, 400 mg QPM, Week 11) was 21.17 (11.16). For the same molecule, the “UAS7 Post-baseline Mean (SD)” value (Omalizumab-Naïve Population with Outlier Removed, 400 mg TID, Week 1) was 18.29 (9.93), the “UAS7 Post-baseline Mean (SD)” value (Omalizumab-Naïve Population with Outlier Removed, 400 mg TID, Week 2) was 16.03 (10.59) and the “UAS7 Post-baseline Mean (SD)” value (Omalizumab-Naïve Population with Outlier Removed, 400 mg TID, Week 3) was 15.20 (9.97). The “UAS7 Post-baseline Mean (SD)” value (Omalizumab-Naïve Population with Outlier Removed, 400 mg TID, Week 4) was 14.65 (9.61), the “UAS7 Post-baseline Mean (SD)” value (Omalizumab-Naïve Population with Outlier Removed, 400 mg TID, Week 5) was 13.41 (10.60) and the “UAS7 Post-baseline Mean (SD)” value (Omalizumab-Naïve Population with Outlier Removed, 400 mg TID, Week 6) was 14.10 (11.23). For the same molecule, the “UAS7 Post-baseline Mean (SD)” value (Omalizumab-Naïve Population with Outlier Removed, 400 mg TID, Week 7) was 13.54 (9.34), the “UAS7 Post-baseline Mean (SD)” value (Omalizumab-Naïve Population with Outlier Removed, 400 mg TID, Week 8) was 13.36 (9.81) and the “UAS7 Post-baseline Mean (SD)” value (Omalizumab-Naïve Population with Outlier Removed, 400 mg TID, Week 9) was 12.57 (9.72). For the same molecule, the “UAS7 Post-baseline Mean (SD)” value (Omalizumab-Naïve Population with Outlier Removed, 400 mg TID, Week 10) was 12.61 (9.89), the “UAS7 Post-baseline Mean (SD)” value (Omalizumab-Naïve Population with Outlier Removed, 400 mg TID, Week 12) was 11.00 (9.90) and the “UAS7 % Change difference for rilzabrutinib vs. placebo LS Mean (95% CI)” value (shortened to “UAS7 % Change difference … (95% CI)”) [1] was −25.01%. The “UAS7 % Change from baseline LS Mean (SE)” value [1] was −34.48 (5.64) %, the “UAS7 Change difference for rilzabrutinib vs. placebo LS Mean (95% CI)” value (“UAS7 Change difference … (95% CI)” below) [1] was −6.24 and the “UAS7 Change from baseline LS Mean (SE)” value [1] was −9.79 (1.58). For the same molecule, the “UAS7 Post-baseline Mean (SD)” value [1] was 19.77 (11.32), the “UAS7 % Change difference … (95% CI)” value [2] was −18.28% and the “UAS7 % Change from baseline LS Mean (SE)” value [2] was −36.05 (5.50) %. The “UAS7 Change difference … (95% CI)” value [2] was −4.55, the “UAS7 Change from baseline LS Mean (SE)” value [2] was −10.44 (1.57) and the “UAS7 Post-baseline Mean (SD)” value [2] was 19.59 (10.86). For the same molecule, the “UAS7 % Change difference … (95% CI)” value [3] was −20.16%, the “UAS7 % Change from baseline LS Mean (SE)” value [3] was −40.11 (5.66) % and the “UAS7 Change difference … (95% CI)” value [3] was −5.04. The “UAS7 Change from baseline LS Mean (SE)” value [3] was −11.96 (1.67), the “UAS7 Post-baseline Mean (SD)” value [3] was 17.71 (11.91) and the “UAS7 % Change difference … (95% CI)” value [4] was −23.20%. The “UAS7 % Change from baseline LS Mean (SE)” value [4] was −43.62 (5.88) %, the “UAS7 Change difference … (95% CI)” value [4] was −5.82 and the “UAS7 Change from baseline LS Mean (SE)” value [4] was −12.89 (1.73). The “UAS7 Post-baseline Mean (SD)” value [4] was 15.92 (11.71), the “UAS7 Post-baseline Mean (SD)” value (Omalizumab-Naïve Population, 400 mg BID, Week 5) was 17.22 (13.36) and the “UAS7 Post-baseline Mean (SD)” value (Omalizumab-Naïve Population, 400 mg BID, Week 6) was 17.02 (12.76). For the same molecule, the “UAS7 Post-baseline Mean (SD)” value (Omalizumab-Naïve Population, 400 mg BID, Week 7) was 15.55 (11.97), the “UAS7 Post-baseline Mean (SD)” value (Omalizumab-Naïve Population, 400 mg BID, Week 8) was 13.98 (13.06) and the “UAS7 Post-baseline Mean (SD)” value (Omalizumab-Naïve Population, 400 mg BID, Week 9) was 14.64 (14.43). The “UAS7 Post-baseline Mean (SD)” value (Omalizumab-Naïve Population, 400 mg BID, Week 10) was 15.22 (14.36), the “UAS7 Post-baseline Mean (SD)” value (Omalizumab-Naïve Population, 400 mg BID, Week 11) was 15.06 (13.80) and the “UAS7 % Change difference … (95% CI)” value [5] was −17.85%. The “UAS7 % Change from baseline LS Mean (SE)” value [5] was −48.13 (6.91) %, the “UAS7 Change difference … (95% CI)” value [5] was −4.09 and the “UAS7 Change from baseline LS Mean (SE)” value [5] was −14.24 (2.06). The “UAS7 Post-baseline Mean (SD)” value [5] was 15.61 (13.91), the “UAS7 % Change difference … (95% CI)” value [6] was −12.19% and the “UAS7 % Change from baseline LS Mean (SE)” value [6] was −21.67 (5.45) %. The “UAS7 Change difference … (95% CI)” value [6] was −3.51, the “UAS7 Change from baseline LS Mean (SE)” value [6] was −7.06 (1.52) and the “UAS7 Post-baseline Mean (SD)” value [6] was 23.81 (8.78). For the same molecule, the “UAS7 % Change difference … (95% CI)” value [7] was −6.60%, the “UAS7 % Change from baseline LS Mean (SE)” value [7] was −24.37 (5.29) % and the “UAS7 Change difference … (95% CI)” value [7] was −1.81. For the same molecule, the “UAS7 Change from baseline LS Mean (SE)” value [7] was −7.71 (1.52), the “UAS7 Post-baseline Mean (SD)” value [7] was 23.44 (8.97) and the “UAS7 % Change difference … (95% CI)” value [8] was −8.98%. The “UAS7 % Change from baseline LS Mean (SE)” value [8] was −28.93 (5.48) %, the “UAS7 Change difference … (95% CI)” value [8] was −2.17 and the “UAS7 Change from baseline LS Mean (SE)” value [8] was −9.10 (1.61).
